According to patent US20120095100A1, “USE OF A COMBINATION OF D-ASPARTIC AND L-ASPARTIC ACIDS OR SALTS THEREOF FOR THE TREATMENT OF MALE INFERTILITY” (MERCK SERONO S.P.A., priority 2009, published 2012):
“And” between values parts separate entries of the source, which are not always exact repeats. Identical values can stand only once. Like-named read-outs stand apart in the source and are kept apart here. Marks after values point to notes of the source that are not given here.

Key:
[1] = test system: spermatozoa in rabbit seminal liquid; assay: Effect of sodium D-aspartate and sodium D-/L-aspartate mixtures on number and motility of spermatozoa in rabbit seminal liquid; type: in vivo; conditions: rabbits, 0.25 g/day total mixed with food, 20 days
Source text: The study has been carried out on two groups of rabbits (10 rabbits for each group) in order to test the effect of sodium D-aspartate and of the sodium D-aspartate in combination with a determined amount of sodium L-aspartate on the quality of seminal liquid, i.e. on number of spermatozoa/ml and on the progressive quick motility thereof.
The experiment involved the ingestion by a group of 10 male adult rabbits, 6 month old, of an amount of sodium D-aspartate corresponding to 0.250 g daily ([…] of body weight) over 20 days. Practically, sodium D-aspartate was mixed with food in such amount that the food daily ingested by the rabbit contained 0.250 g of sodium D-aspartate. In the same way, in a second experiment carried out on another group of 10 same age male adult rabbits, a mixture consisting of 0.2 g of sodium D-aspartate and 0,05 g of sodium L-aspartate (80% D-Asp: 20% L-Asp) was administered. Before the start of the experiment and at the end of drug ingestion lasting 20 days, from every rabbit a sperm sample obtained by stimulation using an artificial vagina has been collected and the total number of spermatozoa/ml of ejaculate and motility thereof have been determined.
The number of the spermatozoa and progressive quick motility are determined according to (World Health Organization) WHO guidelines using a Makler Chamber for the count (Sefi Medtstl Instrument, Haifa, Israel) and in the same place the progressive quick motility has been determined. The rabbit semen was 1:10 diluted in an iso-osmotic solution due to excessive concentration.
The study involved the administration of a mixture consisting of 0.125 g of sodium D-aspartate+0,125 g of sodium L-aspartate (D-Asp 50%: L-Asp 50%) to a group of 10 rabbits according to procedure of Example 2. […] In this case the production of the number of spermatozoa was increased by 25% and motility by 55% compared to controls showing that also in this case an improvement compared to D-aspartate alone was obtained but it was lower than mixture consisting of 80% D-aspartate and 20% L-aspartate.

[2] = test system: LH (luteinizing hormone) in human serum; conditions: men 25-40 years, 30 days
Source text: (§4) The study involves the oral ingestion (after breakfast or main meal) by a group of 10 25-40 year old people of a daily dose consisting of 3.12 g of sodium D-aspartate (19,2 μmole of sodium D-aspartate; 0.27 μmol/kg of body weight for a 70 kg person) over 30 days. Another group of 10 25-40 year old people (after breakfast or main meal) ingested a daily dose of a mixture consisting of 2.49 g of sodium D-aspartate and 0.63 g of sodium L-aspartate (80% sodium D-aspartate and 20% sodium L-aspartate) for the same period.
(§5) LH and testosterone hormonal assays have been carried out using specific commercial kits for clinical chemical use.

[3] = test system: testosterone in human serum; conditions: men 25-40 years, oral 3.12 g/day total, 30 days
Source text: as §4, §5

[4] = test system: spermatozoa in human seminal liquid; assay: Number and quality of spermatozoa in human seminal liquid after oral sodium D-aspartate or sodium D-/L-aspartate mixtures; type: in vivo; conditions: men 25-40 years, oral 3.12 g/day total, 30 days
Source text: (§1) Seminal liquid has been collected through masturbation after 3-5 abstinence days. The number of the spermatozoa and progressive quick motility thereof have been determined according to (World Health Organization) WHO guidelines using a Makler Chamber for the count (Sefi Medtstl Instrument, Haifa, Israel) and in the same place the progressive quick motility has been determined.
It is to be pointed out that this study has been carried out on selected subjects having a number of spermatozoa in seminal liquid from 15.000.000 to 20.000.000/ml, that is minimum threshold values within normal range. […] In this case therefore the action of D-aspartate stimulates their maturation to vital spermatozoa.

[5] = test system: luteinizing hormone (LH), growth hormone, prolactin (PRL) and testosterone in blood; conditions: rat, orally administered; cited from earlier work
[6] = test system: LH and testosterone values and spermatozoon number and motility; conditions: man, daily one or two 3 g doses, at least 30 days; cited from earlier work
[7] = test system: spermatozoa in rabbit seminal liquid; assay: Effect of feed containing D-aspartic/L-aspartic acid on number and motility of spermatozoa in rabbit seminal liquid; type: in vivo; conditions: rabbits, about 1.14 g/day total in feed, 20 days
Source text: The study has been carried out on two groups of rabbits. […] A same age second group of 10 rabbits representing a control group (or placebo) was fed eat for 20 days with same type food as above prepared, but without the addition of D-aspartic and L-aspartic acids mixture. The experiments have been carried out in a rabbit breeding farm (“Potenza Breeders' Association”, Potenza, Italy). Before the start and at the end of the experiment from each rabbit a sperm sample has been collected by stimulation with an artificial vagina (see paper: “G. Macchia et al., DL-aspartic acid administration improve semen quality in rabbit bucks, published on “Animal Reproduction Science, 118, 337-343, 2010) and the total number of spermatozoa/ml of ejaculate and motility thereof have been determined.
The number of the spermatozoa and progressive quick motility are determined according to (World Health Organization) WHO guidelines using a Makler Chamber for the count (Sefi Medtstl Instrument, Haifa, Israel) and in the same place the progressive quick motility has been determined.
Also this study has been carried out on two groups of same age and weight rabbits as used for previous study. […] Also in this case seminal liquid has been collected before and after the experiment and then examined for spermatozoon number and motility thereof.
Also this study carried out on rabbits has been carried out in the same way as previous ones. […] Also in this case total amount of D-Asp+L-Asp ingested daily by rabbits was about 1.140 g.

[8] = test system: LH (luteinizing hormone) in human serum; assay: LH in human serum after oral D-aspartic/L-aspartic acid; type: in vivo; conditions: men, L-aspartic acid alone
Source text: (§2) Like ingestion procedure, the D-aspartic and L-aspartic acid mixture preferably was dispersed in a half filled glass containing water or fresh or stored fruit juice (orange, apple, pear, etc.), then stirred and ingested.
(§3) Before the start of the study and after 20 days of treatment in the morning from each subject blood has been collected and the concentration of LH (luteinizing hormone) and testosterone has been determined in serum obtained from said blood. Moreover, from every subject also the seminal liquid has been collected for which quick progressive motility together with total number spermatozoa/ml of sperm has been determined.

[9] = test system: testosterone in human serum; assay: Testosterone in human serum after oral D-aspartic/L-aspartic acid; type: in vivo; conditions: men, L-aspartic acid alone
Source text: as §2, §3

[10] = test system: spermatozoa in human seminal liquid; assay: Number and quick progressive motility of spermatozoa in human seminal liquid after oral D-aspartic/L-aspartic acid; type: in vivo; conditions: men
Source text: as §2, §3
as §1, with “The seminal” for “Seminal”, “by” for “through”, “motility” for “motility thereof”

For N[C@H](CC(=O)[O-])C(=O)[O-].[Na+].[Na+] [100% D-Aspartate, sodium D-aspartate], the “% increment of number of spermatozoa vs before the treatment” value [1] was 19.3%, the “% increment of quick progressive spermatozoa vs before the treatment” value [1] was 37% and the “Immobile spermatozoa after ingestion (on 100 base)” value [1] was 18%*. For the same compound, the “Quick progressive spermatozoa after ingestion (on 100 base)” value [1] was 55%*, the “Slow spermatozoa after ingestion (on 100 base)” value [1] was 27%* and the “% increment of quick progressive spermatozoa vs before the treatment” value ([1]; listed as D-aspartate) was 37%. For the same compound, the “Quick progressive spermatozoa after ingestion (on 100 base)” value ([1]; listed as D-aspartate) was 55%, the “% increment of number of spermatozoa vs before the treatment” value ([1]; listed as sodium D-aspartate) was 19,3% and the “% increment of quick progressive spermatozoa vs before the treatment” value ([1]; listed as sodium D-aspartate) was 37%. The “Quick progressive spermatozoa after ingestion (on 100 base)” value ([1]; listed as sodium D-aspartate) was 55%, the “LH % increment vs before the treatment” value ([2]; oral 3.12 g/day total) was “+25.6%” and the LH after ingestion ([2]; oral 3.12 g/day total, average of 10) was 5.4 mIU/ml serum. The “LH % increment vs before the treatment” value ([2]; oral 3.12 g/day total, listed as sodium D-aspartate) was 25,6%, the “LH haematic value after ingestion” value ([2]; oral 3.12 g/day) was 5.4 mUI/ml and the “Testosterone % increment vs before the treatment” value [3] was “+31.2%”. For the same compound, the Testosterone after ingestion ([3]; average of 10) was 6.3 ng/ml serum, the “Testosterone % increment vs before the treatment” value ([3]; listed as sodium D-aspartate) was 31.2% and the “% increase of quick progressive spermatozoa vs before the treatment” value [4] was “+28%”. For the same compound, the “% increase of total spermatozoa vs before the treatment” value [4] was “+27%”, the “Immobile spermatozoa after ingestion (on base 100)” value [4] was 30%* and the “Quick progressive spermatozoa after ingestion (on base 100)” value [4] was 45%*. The “Slow spermatozoa after ingestion (on base 100)” value [4] was 25%*, the “% increase of quick progressive spermatozoa vs before the treatment” value ([4]; listed as sodium D-aspartate) was 28% and the “% increase of total spermatozoa vs before the treatment” value ([4]; listed as sodium D-aspartate) was 27%.

For N[C@H](CC(=O)O)C(=O)O [D-aspartic acid], the “Blood LH, growth hormone, prolactin and testosterone” value [5] is given as “temporary increase” and the “LH and testosterone values and spermatozoon number and motility” value [6] is given as “induced an increase”.

In the case of N[C@@H](CC(=O)O)C(=O)O [L-aspartic acid], the “Immobile after treatment (on base 100)” value [7] is reported as 29%, the “Quick motility after treatment (on base 100)” value [7] is reported as 41% and the “Slow motility after treatment (on base 100)” value [7] is reported as 30%. For the same compound, the “LH haematic hormone before and after therapy” value [8] was “unaltered”, the “Testosterone haematic hormone before and after therapy” value [9] was “unaltered” and the “Quick progressive motility of spermatozoa after treatment, individual subjects” value ([10]; % progressive quick of 100 observed spermatozoa, one line per subject 1°-10°) was 25% and 19% and 35% (2×) and 18% and 40% and 45% and 22% and 27% and 39%. For the same compound, the “Average % increment of quick progressive motility” value ([10]; average ± SD of 10 subjects) was “+35.6% ± 9.05”, the “% increment of number of spermatozoa, individual subjects” value ([10]; one line per subject 1°-10°) was 26% and 40% and 20% and 33% and 36% and 15% and 13% (2×) and 19% and 12% and the “% increment of quick progressive motility, individual subjects” value ([10]; one line per subject 1°-10°) was 38% and 26% and 45% and 50% and 25% (2×) and 28% and 37% and 42% and 40%. For the same compound, the “Number of spermatozoa in seminal liquid after treatment, individual subjects” value ([10]; one line per subject 1°-10° (20 days for the 80/20 mixture)) was 8 × 10^6 and 35 × 10^6 and 6 × 10^6 and 20 × 10^6 and 41 × 10^6 and 3 × 10^6 and 34 × 10^6 and 51 × 10^6 and 25 × 10^6 and 18 × 10^6.
